Assay results taken from patent US20200288711A1, “Pyrimidin-4-Carbamate or Urea Derivatives As Herbicides” (Syngenta Participations AG, priority 2017, published 2020).

System: Alopecurus myosuroides (ALOMY)
Assay: B1 pre-emergence herbicidal activity
Assay type: in vivo
Set-up: key: 5=total damage to plant; 0=no damage to plant
Settings: Test 1b, rate 1000 g/ha, evaluated after 13 days, score 0-5 (5=total damage, 0=no damage)
Experimental: (§1) Seeds of a variety of test species were sown in standard soil in pots: Triticum aestivium (TRZAW), Avena fatua (AVEFA), Alopecurus myosuroides (ALOMY), Echinochloa crus-galli (ECHCG), Lolium perenne (LOLPE), Zea mays (ZEAMX), Abutilon theophrasti (ABUTH), Amaranthus retroflexus (AMARE) and Setaria faberi (SETFA). After cultivation for one day (pre-emergence) under controlled conditions in a glasshouse (at 24/16° C., day/night; 14 hours light; 65% humidity), the plants were sprayed with an aqueous spray solution derived from the formulation of the technical active ingredient in acetone/water (50:50) solution containing 0.5% Tween 20 (polyoxyethelyene sorbitan monolaurate, CAS RN 9005-64-5). The test plants were then grown in a glasshouse under controlled conditions (at 24/16° C., day/night; 14 hours light; 65% humidity) and watered twice daily. After 13 days, the test was evaluated (5=total damage to plant; 0=no damage to plant).

| SMILES | Pre-emergence herbicidal activity, ALOMY |
| --- | --- |
| O=C(Nc1cnc(-c2cncc(F)c2)nc1C(F)(F)F)N1CCOCC1 [Compound E8, N-[2-(5-fluoro-3-pyridyl)-4-(trifluoromethyl)pyrimidin-5-yl]morpholine-4-carboxamide] | 0 |
| CN1CCN(c2cnc(-c3cncc(F)c3)nc2C(F)(F)F)C1=O [Compound E9, 1-[2-(5-fluoro-3-pyridyl)-4-(trifluoromethyl)pyrimidin-5-yl]-3-methyl-imidazolidin-2-one] | 0 |
| CCCOC(=O)Nc1cnc(-c2cncc(F)c2)nc1C(F)(F)F [Compound E10] | 0 |

System: Avena fatua (AVEFA)
Assay: B1 pre-emergence herbicidal activity
Assay type: in vivo
Set-up: key: 5=total damage to plant; 0=no damage to plant
Settings: Test 1b, rate 1000 g/ha, evaluated after 13 days, score 0-5 (5=total damage, 0=no damage)
Experimental: as §1

| SMILES | Pre-emergence herbicidal activity, AVEFA |
| --- | --- |
| O=C(Nc1cnc(-c2cncc(F)c2)nc1C(F)(F)F)N1CCOCC1 [Compound E8, N-[2-(5-fluoro-3-pyridyl)-4-(trifluoromethyl)pyrimidin-5-yl]morpholine-4-carboxamide] | 2 |
| CN1CCN(c2cnc(-c3cncc(F)c3)nc2C(F)(F)F)C1=O [Compound E9, 1-[2-(5-fluoro-3-pyridyl)-4-(trifluoromethyl)pyrimidin-5-yl]-3-methyl-imidazolidin-2-one] | 1 |
| CCCOC(=O)Nc1cnc(-c2cncc(F)c2)nc1C(F)(F)F [Compound E10] | 2 |

System: Lolium perenne (LOLPE)
Assay: B1 pre-emergence herbicidal activity
Assay type: in vivo
Set-up: key: 5=total damage to plant; 0=no damage to plant
Settings: Test 1b, rate 1000 g/ha, evaluated after 13 days, score 0-5 (5=total damage, 0=no damage)
Experimental: as §1

| SMILES | Pre-emergence herbicidal activity, LOLPE |
| --- | --- |
| O=C(Nc1cnc(-c2cncc(F)c2)nc1C(F)(F)F)N1CCOCC1 [Compound E8, N-[2-(5-fluoro-3-pyridyl)-4-(trifluoromethyl)pyrimidin-5-yl]morpholine-4-carboxamide] | 1 |
| CN1CCN(c2cnc(-c3cncc(F)c3)nc2C(F)(F)F)C1=O [Compound E9, 1-[2-(5-fluoro-3-pyridyl)-4-(trifluoromethyl)pyrimidin-5-yl]-3-methyl-imidazolidin-2-one] | 1 |
| CCCOC(=O)Nc1cnc(-c2cncc(F)c2)nc1C(F)(F)F [Compound E10] | 1 |

System: Triticum aestivium (TRZAW)
Assay: B1 pre-emergence herbicidal activity
Assay type: in vivo
Set-up: key: 5=total damage to plant; 0=no damage to plant
Settings: Test 1b, rate 1000 g/ha, evaluated after 13 days, score 0-5 (5=total damage, 0=no damage)
Experimental: as §1

| SMILES | Pre-emergence herbicidal activity, TRAZW |
| --- | --- |
| O=C(Nc1cnc(-c2cncc(F)c2)nc1C(F)(F)F)N1CCOCC1 [Compound E8, N-[2-(5-fluoro-3-pyridyl)-4-(trifluoromethyl)pyrimidin-5-yl]morpholine-4-carboxamide] | 0 |
| CN1CCN(c2cnc(-c3cncc(F)c3)nc2C(F)(F)F)C1=O [Compound E9, 1-[2-(5-fluoro-3-pyridyl)-4-(trifluoromethyl)pyrimidin-5-yl]-3-methyl-imidazolidin-2-one] | 0 |
| CCCOC(=O)Nc1cnc(-c2cncc(F)c2)nc1C(F)(F)F [Compound E10] | 0 |

System: Setaria faberi (SETFA)
Assay: B1 pre-emergence herbicidal activity
Assay type: in vivo
Settings: Test 1b, rate 1000 g/ha, evaluated after 13 days, score 0-5 (5=total damage, 0=no damage)
Experimental: as §1

| SMILES | Pre-emergence herbicidal activity, SETFA |
| --- | --- |
| O=C(Nc1cnc(-c2cncc(F)c2)nc1C(F)(F)F)N1CCOCC1 [Compound E8, N-[2-(5-fluoro-3-pyridyl)-4-(trifluoromethyl)pyrimidin-5-yl]morpholine-4-carboxamide] | 4 |
| CN1CCN(c2cnc(-c3cncc(F)c3)nc2C(F)(F)F)C1=O [Compound E9, 1-[2-(5-fluoro-3-pyridyl)-4-(trifluoromethyl)pyrimidin-5-yl]-3-methyl-imidazolidin-2-one] | 2 |

System: Echinochloa crus-galli (ECHCG)
Assay: B1 pre-emergence herbicidal activity
Assay type: in vivo
Settings: Test 1b, rate 1000 g/ha, evaluated after 13 days, score 0-5 (5=total damage, 0=no damage)
Experimental: as §1

| SMILES | Pre-emergence herbicidal activity, ECHCG |
| --- | --- |
| O=C(Nc1cnc(-c2cncc(F)c2)nc1C(F)(F)F)N1CCOCC1 [Compound E8, N-[2-(5-fluoro-3-pyridyl)-4-(trifluoromethyl)pyrimidin-5-yl]morpholine-4-carboxamide] | 3 |
| CN1CCN(c2cnc(-c3cncc(F)c3)nc2C(F)(F)F)C1=O [Compound E9, 1-[2-(5-fluoro-3-pyridyl)-4-(trifluoromethyl)pyrimidin-5-yl]-3-methyl-imidazolidin-2-one] | 1 |
| CCCOC(=O)Nc1cnc(-c2cncc(F)c2)nc1C(F)(F)F [Compound E10] | 4 |

System: Alopecurus myosuroides (ALOMY)
Assay: B2 post-emergence herbicidal activity
Assay type: in vivo
Set-up: key: 5=total damage to plant; 0=no damage to plant
Settings: Test 2b, rate 1000 g/ha, evaluated after 13 days, score 0-5 (5=total damage, 0=no damage)
Experimental: (§2) Seeds of a variety of test species were sown in standard soil in pots: Triticum aestivium (TRZAW), Avena fatua (AVEFA), Alopecurus myosuroides (ALOMY), Echinochloa crus-galli (ECHCG), Lolium perenne (LOLPE), Zea mays (ZEAMX), Abutilon theophrasti (ABUTH), Amaranthus retroflexus (AMARE) and Setaria faberi (SETFA). After 8 days cultivation (post-emergence) under controlled conditions in a glasshouse (at 24/16° C., day/night; 14 hours light; 65% humidity), the plants were sprayed with an aqueous spray solution derived from the formulation of the technical active ingredient in acetone/water (50:50) solution containing 0.5% Tween 20 (polyoxyethelyene sorbitan monolaurate, CAS RN 9005-64-5). The test plants were then grown in a glasshouse under controlled conditions (at 24/16° C., day/night; 14 hours light; 65% humidity) and watered twice daily. After 13 days, the test was evaluated (5=total damage to plant; 0=no damage to plant).

| SMILES | Control of weed species after post-emergence application, ALOMY |
| --- | --- |
| O=C(Nc1cnc(-c2cncc(F)c2)nc1C(F)(F)F)N1CCOCC1 [Compound E8, N-[2-(5-fluoro-3-pyridyl)-4-(trifluoromethyl)pyrimidin-5-yl]morpholine-4-carboxamide] | 1 |
| CN1CCN(c2cnc(-c3cncc(F)c3)nc2C(F)(F)F)C1=O [Compound E9, 1-[2-(5-fluoro-3-pyridyl)-4-(trifluoromethyl)pyrimidin-5-yl]-3-methyl-imidazolidin-2-one] | 0 |
| CCCOC(=O)Nc1cnc(-c2cncc(F)c2)nc1C(F)(F)F [Compound E10] | 0 |

System: Avena fatua (AVEFA)
Assay: B2 post-emergence herbicidal activity
Assay type: in vivo
Set-up: key: 5=total damage to plant; 0=no damage to plant
Settings: Test 2b, rate 1000 g/ha, evaluated after 13 days, score 0-5 (5=total damage, 0=no damage)
Experimental: as §2

| SMILES | Control of weed species after post-emergence application, AVEFA |
| --- | --- |
| O=C(Nc1cnc(-c2cncc(F)c2)nc1C(F)(F)F)N1CCOCC1 [Compound E8, N-[2-(5-fluoro-3-pyridyl)-4-(trifluoromethyl)pyrimidin-5-yl]morpholine-4-carboxamide] | 3 |
| CN1CCN(c2cnc(-c3cncc(F)c3)nc2C(F)(F)F)C1=O [Compound E9, 1-[2-(5-fluoro-3-pyridyl)-4-(trifluoromethyl)pyrimidin-5-yl]-3-methyl-imidazolidin-2-one] | 2 |
| CCCOC(=O)Nc1cnc(-c2cncc(F)c2)nc1C(F)(F)F [Compound E10] | 3 |

System: Echinochloa crus-galli (ECHCG)
Assay: B2 post-emergence herbicidal activity
Assay type: in vivo
Set-up: key: 5=total damage to plant; 0=no damage to plant
Settings: Test 2b, rate 1000 g/ha, evaluated after 13 days, score 0-5 (5=total damage, 0=no damage)
Experimental: as §2

| SMILES | Control of weed species after post-emergence application, ECHCG |
| --- | --- |
| O=C(Nc1cnc(-c2cncc(F)c2)nc1C(F)(F)F)N1CCOCC1 [Compound E8, N-[2-(5-fluoro-3-pyridyl)-4-(trifluoromethyl)pyrimidin-5-yl]morpholine-4-carboxamide] | 4 |
| CN1CCN(c2cnc(-c3cncc(F)c3)nc2C(F)(F)F)C1=O [Compound E9, 1-[2-(5-fluoro-3-pyridyl)-4-(trifluoromethyl)pyrimidin-5-yl]-3-methyl-imidazolidin-2-one] | 4 |
| CCCOC(=O)Nc1cnc(-c2cncc(F)c2)nc1C(F)(F)F [Compound E10] | 4 |

System: Lolium perenne (LOLPE)
Assay: B2 post-emergence herbicidal activity
Assay type: in vivo
Set-up: key: 5=total damage to plant; 0=no damage to plant
Settings: Test 2b, rate 1000 g/ha, evaluated after 13 days, score 0-5 (5=total damage, 0=no damage)
Experimental: as §2

| SMILES | Control of weed species after post-emergence application, LOLPE |
| --- | --- |
| O=C(Nc1cnc(-c2cncc(F)c2)nc1C(F)(F)F)N1CCOCC1 [Compound E8, N-[2-(5-fluoro-3-pyridyl)-4-(trifluoromethyl)pyrimidin-5-yl]morpholine-4-carboxamide] | 3 |
| CN1CCN(c2cnc(-c3cncc(F)c3)nc2C(F)(F)F)C1=O [Compound E9, 1-[2-(5-fluoro-3-pyridyl)-4-(trifluoromethyl)pyrimidin-5-yl]-3-methyl-imidazolidin-2-one] | 1 |
| CCCOC(=O)Nc1cnc(-c2cncc(F)c2)nc1C(F)(F)F [Compound E10] | 1 |

System: Setaria faberi (SETFA)
Assay: B2 post-emergence herbicidal activity
Assay type: in vivo
Set-up: key: 5=total damage to plant; 0=no damage to plant
Settings: Test 2b, rate 1000 g/ha, evaluated after 13 days, score 0-5 (5=total damage, 0=no damage)
Experimental: as §2

| SMILES | Control of weed species after post-emergence application, SETFA |
| --- | --- |
| O=C(Nc1cnc(-c2cncc(F)c2)nc1C(F)(F)F)N1CCOCC1 [Compound E8, N-[2-(5-fluoro-3-pyridyl)-4-(trifluoromethyl)pyrimidin-5-yl]morpholine-4-carboxamide] | 5 |
| CN1CCN(c2cnc(-c3cncc(F)c3)nc2C(F)(F)F)C1=O [Compound E9, 1-[2-(5-fluoro-3-pyridyl)-4-(trifluoromethyl)pyrimidin-5-yl]-3-methyl-imidazolidin-2-one] | 3 |
| CCCOC(=O)Nc1cnc(-c2cncc(F)c2)nc1C(F)(F)F [Compound E10] | 5 |

System: Triticum aestivium (TRZAW)
Assay: B2 post-emergence herbicidal activity
Assay type: in vivo
Set-up: key: 5=total damage to plant; 0=no damage to plant
Settings: Test 2b, rate 1000 g/ha, evaluated after 13 days, score 0-5 (5=total damage, 0=no damage)
Experimental: as §2

| SMILES | Control of weed species after post-emergence application, TRAZW |
| --- | --- |
| O=C(Nc1cnc(-c2cncc(F)c2)nc1C(F)(F)F)N1CCOCC1 [Compound E8, N-[2-(5-fluoro-3-pyridyl)-4-(trifluoromethyl)pyrimidin-5-yl]morpholine-4-carboxamide] | 1 |
| CN1CCN(c2cnc(-c3cncc(F)c3)nc2C(F)(F)F)C1=O [Compound E9, 1-[2-(5-fluoro-3-pyridyl)-4-(trifluoromethyl)pyrimidin-5-yl]-3-methyl-imidazolidin-2-one] | 1 |
| CCCOC(=O)Nc1cnc(-c2cncc(F)c2)nc1C(F)(F)F [Compound E10] | 1 |
